Test results: patent publication US5183821A, “Method for treating leukemias using N-(2-dimethylaminoethyl)-3-amino-1,8-naphthalimide for treating leukemias and solid tumors” (priority 1991, dated 1993)

Columns and labels:
L-1210 Lymphoid leukemia [1] = assay: Experiment 4: L-1210 s.c., 10^5 cells, acid diluted with saline, male; type: in vivo, Mouse CD2 F1 (CDF1)
Description: (§1) Host: Mouse CD2 F1 (CDF1)
(§2) Tumor: L-1210 Lymphoid leukemia
Inoculum Site: Subcutaneous
Vehicle: acid diluted with saline
(§3) Treatment schedule (relative to tumor inoculation day): daily on days 1-9
(§4) Day of evaluation (relative to tumor inoculation day): 30
(§5) Parameter: Median survival time (MST) in days
(§6) NCI minimal activity criteria: Percent T/C≥125
(§7) Percent T/C: Ratio of test (T) evaluation to control (C) evaluation expressed as a percentage

L-1210 Lymphoid Leukemia [2] = assay: NCI screen, L-1210 Lymphoid Leukemia, subcutaneous (summary); type: in vivo, Mouse
Description: The activity of the compound has been evaluated by experiments carried out under the auspices of the Division of Cancer Treatment, National Cancer Institute, employing techniques considered to be reliable indicators of chemotherapeutic utility in the treatment of forms of cancer in human patients. The details of the methodology employed in the reported experiments may be determined with reference to established NCI screening methods. In the experiments conducted by the NCI, evaluation of activity is made on the basis of appropriate parameters, such as median survival time (MST) or change in average tumor diameter (CATD)in ocular micrometer units (OMU).

[3] = test system: P 388 Lymphocytic leukemia; assay: Experiment 10: P388 i.p., 10^6 cells, saline with Tween-80, male; type: in vivo, Mouse CD2F1 (CDF1)
Description: Tumor: P 388 Lymphocytic leukemia
(§8) Inoculum Site: Intraperitoneal
Vehicle: Saline with Tween-80
as §3, §4, §5
NCI minimal activity criteria: Percent T/C≥120
as §7

L-1210 Lymphoid leukemia [4] = assay: Experiment 2: L-1210 s.c., 10^5 cells, acid diluted with saline, female; type: in vivo, Mouse CD2 F1 (CDF1)
Description: as §1, §2
Inoculum site: Subcutaneous
(§9) Vehicle: Acid diluted with saline
as §3, §4, §5, §6, §7

leukemia P388 = assay: NCI studies against leukemia P388 (Appendix 1, MDA and T/C); type: in vivo, murine
Description: On the other hand, murine transplantable leukemias are a good predictor of anti-leukemia activity in human beings (Kenis "Dose schedules and mode of administration of chemotherapeutic agents in man". Recent Results Cancer Res. 21, 54-61 (1969). Only those tests which use the survival times as an activity parameter are valid as predictors of antileukemia activity in human beings (for instance, leukemia p388 y L-1210), whilst "in vitro" tests (HeLa cells and other) are inappropriate (Llombart-Rodriguez, 1983). NCI data generated in the last years confirm the value of above assertions to compounds of general formula [drawing 1] as described in U.S. Pat. No. 4,204,063.
Experimental results from NCI studies against leukemia P388 are shown in an appendix (Appendix 1). In order to simplify the presentation of results we have extracted from these the minor active dose (MDA) against leukemia P388--for each compound. MDA is defined as the minor dose of the drug that reaches the minimal activity criteria of the NCI. For leukemia P388 this criteria on the basis of survival time is a minimal increase in survival of treated animals over a control resulting in a T/C≥120. In the following table the MDA for 14 examples are presented. In cases where none of the tested doses reached the MDA, the MDA is indicated as "NONE". The column "cytotoxic activity" has been extracted from U.S. Pat. No. 4,204,063. Data are presented in order of the highest to lowest cytotoxic activity.

L-1210 Lymphoid leukemia [5] = assay: Experiment 1: L-1210 i.p., 10^4 cells, acid diluted with saline, male; type: in vivo, Mouse CD2 F1 (CDF1)
Description: as §1, §2
Inoculum Site: intraperitoneal
Vehicle: Acid Diluted with saline
as §3, §4, §5, §6, §7

B16 Melanocarcinoma = assay: Experiment 19: B16 i.p., acid diluted with saline, female; type: in vivo, Mouse B6 D2 F1
Description: Tumor: B16 Melanocarcinoma
as §8
Tissue: Homogenate (or brei), tumor
as §9
Treatment schedule: (relative to tumor inoculation day): daily on days 1-9
(§10) Day of evaluation (relative to tumor inoculation day): 60
as §5, §6, §7

M5076 ovarian carcinoma = assay: Experiment 21: M5076 i.p., 10^6 cells, acid diluted with saline, female; type: in vivo, Mouse
Description: Tumor: M5076 ovarian carcinoma
as §8, §9
Treatment schedule (relative to tumor inoculation day): every 4 days for 4 times
as §10
Parameter: Mean survival time (MST) in days
NCI minimal activity criteria: Percent T/C≥125.
Percent T/C: Ratio of test (T) evaluation to control (C) evaluation expressed as a percentage.

canine whole blood = assay: Hemolytic potential testing, canine whole blood; conditions: 50 mg/ml
Experimental: Therefore, a concentration of 12.5 mg/ml was used in the dog studies.

## CN(C)CCN1C(=O)c2cccc3cc(N)cc(c23)C1=O [Example 9, 1H-Benz[de]isoquinoline-1,3(2H)-dione, 5-amino-2-[2-(dimethylamino)ethyl]]
L-1210 Lymphoid leukemia [1]; 0.00 mg/kg [sic] i.p.
  Median survival time (MST): 8.9 days
  Percent T/C: 101%
L-1210 Lymphoid leukemia [1]; 5.00 mg/kg i.p.
  Median survival time (MST): 10.4 days
  Percent T/C: 118%
L-1210 Lymphoid leukemia [1]; 7.00 mg/kg i.p.
  Median survival time (MST): 10.7 days
  Percent T/C: 121%
L-1210 Lymphoid leukemia [1]; 10.00 mg/kg i.p.
  Median survival time (MST): 12.0 days
  Percent T/C: 136%
L-1210 Lymphoid leukemia [1]; 16.00 mg/kg i.p.
  Median survival time (MST): 15.3 days
  Percent T/C: 173%
L-1210 Lymphoid leukemia [1]; 24.00 mg/kg i.p.
  Median survival time (MST): 11.0 days
  Percent T/C: 125%
L-1210 Lymphoid Leukemia [2]; median survival time, 16 tests, full wrapped cell: Activity substantially greater than the minimal
  Table II evaluation: Activity
L-1210 Lymphoid Leukemia [2]; s.c. implanted L1210
  Antitumor activity in words: active
[3]; 2.00 mg/kg i.p.
  Median survival time (MST): 13.3 days
  Percent T/C: 135%
[3]; 4.00 mg/kg i.p.
  Median survival time (MST): 14.0 days
  Percent T/C: 142%
[3]; 8.00 mg/kg i.p.
  Median survival time (MST): 17.3 days
  Percent T/C: 176%
[3]; 16.00 mg/kg i.p.
  Median survival time (MST): 13.0 days
  Percent T/C: 132%
[3]; 32.00 mg/kg i.p.
  Median survival time (MST): 6.1 days
L-1210 Lymphoid leukemia [4]; 5.00 mg/kg i.p.
  Median survival time (MST): 8.2 days
  Percent T/C: 102%
L-1210 Lymphoid leukemia [4]; 7.00 mg/kg i.p.
  Median survival time (MST): 8.3 days
  Percent T/C: 103%
L-1210 Lymphoid leukemia [4]; 10.00 mg/kg i.p.
  Median survival time (MST): 9.0 days
  Percent T/C: 112%
L-1210 Lymphoid leukemia [4]; 16.00 mg/kg i.p.
  Median survival time (MST): 12.0 days
  Percent T/C: 150%
L-1210 Lymphoid leukemia [4]; 24.00 mg/kg i.p.
  Median survival time (MST): 9.3 days
  Percent T/C: 116%
Leukemia P388; Mus musculus, P388, read-out: T/C %, dose 2,00 mg/kg
  response vs control in vivo at 2 mg/kg: 137%
Leukemia P388; Mus musculus, P388, read-out: T/C %, dose 4,00 mg/kg
  response vs control in vivo at 4 mg/kg: 142%
Leukemia P388; Mus musculus, P388, read-out: T/C %, dose 32,00 mg/kg
  response vs control in vivo at 32 mg/kg: < 100%
Leukemia P388; Mus musculus, P388, read-out: T/C %, dose 65,00 mg/kg
  response vs control in vivo at 65 mg/kg: < 100%
Leukemia P388; Mus musculus, P388, minor active dose reaching T/C≥120
  minimal effective dose: 2 mg/kg
Leukemia P388; at the dose of the same line of the appendix table
  STATUS (activity against leukemia P388): T/C > 120 active
L-1210 Lymphoid leukemia [5]; 2.00 mg/kg i.p.
  Median survival time (MST): 9.9 days
  Percent T/C: 107%
L-1210 Lymphoid leukemia [5]; 4.00 mg/kg i.p.
  Median survival time (MST): 10.4 days
  Percent T/C: 113%
L-1210 Lymphoid leukemia [5]; 8.00 mg/kg i.p.
  Median survival time (MST): 12.3 days
  Percent T/C: 133%
L-1210 Lymphoid leukemia [5]; 16.00 mg/kg i.p.
  Median survival time (MST): 20.0 days
  Percent T/C: 217%
L-1210 Lymphoid leukemia [5]; 32.00 mg/kg i.p.
  Median survival time (MST): 8.8 days
  Percent T/C: 95%
B16 Melanocarcinoma; 1.00 mg/kg i.p.
  Median survival time (MST): 19.8 days
  Percent T/C: 99%
B16 Melanocarcinoma; 2.00 mg/kg i.p.
  Median survival time (MST): 21.9 days
  Percent T/C: 110%
B16 Melanocarcinoma; 4.00 mg/kg i.p.
  Median survival time (MST): 22.8 days
  Percent T/C: 114%
B16 Melanocarcinoma; 8.00 mg/kg i.p.
  Median survival time (MST): 24.3 days
  Percent T/C: 122%
B16 Melanocarcinoma; 16.00 mg/kg i.p.
  Median survival time (MST): 31.0 days
  Percent T/C: 155%
B16 Melanocarcinoma; 32.00 mg/kg i.p.
  Median survival time (MST): 6.8 days
M5076 ovarian carcinoma; 4.50 mg/kg i.p.
  Mean survival time (MST): 29,0 days
  Percent T/C: 109%
M5076 ovarian carcinoma; 9,00 mg/kg i.p.
  Mean survival time (MST): 28,7 days
  Percent T/C: 107%
M5076 ovarian carcinoma; 18,00 mg/kg i.p.
  Mean survival time (MST): 30,8 days
  Percent T/C: 115%
M5076 ovarian carcinoma; 36,00 mg/kg i.p.
  Mean survival time (MST): 37,0 days
  Percent T/C: 139%
M5076 ovarian carcinoma; 72,00 mg/kg i.p.
  Mean survival time (MST): Toxic.
Canine whole blood; 1:1 drug to blood
  hemolysis: hemolysis
Canine whole blood; 1:2
  hemolysis: Slight hemolysis
Canine whole blood; 1:4
  hemolysis: none
